Among the data in BindingDB's records for doi:10.1021/acs.jmedchem.7b00782 (Jadavpur University, 2018) are Ki values, retold here.

The structures appear in SMILES notation.

This test in a line: Inhibition of LAP (unknown origin).

For the compound `CC(C)CC(N)P(=O)(O)C(=O)N[C@H](CC(C)C)C(=O)O` (some centres undefined), the affinity corresponds to a Ki of 56 µM.
Next, `CC(C)CC(N)B1OC(C)(C)C(C)(C)O1` (centres undefined): 1.3 µM; `CC(N)B1OC(C)(C)C(C)(C)O1` (centres undefined): 90 µM.
Take `CC1(C)OB(C(N)Cc2ccccc2)OC1(C)C` (centres undefined): the affinity corresponds to a Ki of 0.05 µM.
